Results reported in paper PMC6214120 (International Journal of Molecular Sciences, 2018).
Like-named read-outs stand apart in the source and are kept apart here. Blank lines part the entries; values can stand above or below the compound they belong to.

How the values were obtained:
chicken = assay: In vivo experiments with BCRP inhibitor Ko143 in chicken; conditions: in vivo experiments with Ko143 as additional BCRP inhibitor were unsuccessful
[1] = Bidirectional transport assay in wild-type MDCK cells; type: in vitro ADME, canine; conditions: dog, FFC 50 μM
Procedure: (§1) Wild-type MDCK cells and MDCK-chAbcg2 cells were seeded into Transwell® inserts (Catalogue number 3460, Corning Coster Corp. Acton, MA, USA) in 12-well plates at a density of 1 × 10^5 cells/insert and cultured for 5 days. The cell layer integrity was tested before transport by measuring transepithelial electrical resistance (TEER) across the apical (AP) and the basolateral (BL) sides of the cell line using a Millicell-ERS epithelial voltometer (Millipore, Burlington, MA, USA). The bidirectional transport experiments were conducted with the transport buffers containing either FFC (50 μM) or the mixture of FFC and gefitinib instead of the blank medium or the medium contain gefitinib (100 μM). After the cells were incubated with transport buffers for 4 h, the samples collected from the receiving sides were submitted for HPLC analysis. The TEER values of each monolayer were checked again at the end of the transport studies to ensure the integrities of cell monolayers during the whole transport analysis. According to FDA guidance a drug with a net efflux ratio that is over 2.0 will be considered as a potential substrate of an efflux pump. The apparent permeability coefficients (Papp) across cell monolayer were calculated as follows: Papp = (dQ/dt)/(A × C0), where A is the area of filter membrane, C0 is the initial concentration of the tested drug, dQ is the amount of transported drug, and dt is time elapsed. The efflux ratio (ER) was calculated from (Papp B→A)/(Papp A→B) and the net efflux ratio (NER) was calculated from […]. Each group has 5 cell monolayers, and the experiment was repeated three times.

chicken BCRP (Abcg2) = assay: Bidirectional transport assay in MDCK-chAbcg2 cells; type: in vitro ADME; conditions: chicken, FFC 50 μM, 4 h
Procedure: as §1

chicken BCRP = assay: as above; type: in vitro ADME; conditions: MDCK-chAbcg2 vs MDCK, gefitinib as inhibitor
Procedure: as §1

[2] = Pharmacokinetic studies of FFC in broilers; type: in vivo, Arbor Acres (AA) broilers; conditions: for bioavailability: read-out: F (absolute bioavailability); for AUC(0-t): read-out: AUC0~12h; for half-life: read-out: T1/2β (converted)
Procedure: Ten 4-week and fifteen 8-week old AA broilers were used in this study and divided into five groups (5 birds in each group) as follows: Group I, 4-week old birds given FFC orally with a single dose of 20 mg/kg through crop tube gavage; group II, 8-week old birds given FFC orally with a single dose of 20 mg/kg through crop tube gavage; group III, 4-week old birds given FFC intravenously with a single dose of 10 mg/kg through the left brachialis vein; group IV, 8-week old birds given FFC intravenously with a single dose of 10 mg/kg through the left brachialis vein; group V, 8-week old birds orally given FFC (20 mg/kg) plus gefitinib (100 mg/kg, an inhibitor of BCRP) through crop tube gavage. Groups I, II, III, and IV were used to study the influence of age-dependent BCRP expression on FFC pharmacokinetics. The data from group II and group V were used to further analyze the effects of BCRP on FFC pharmacokinetics. […] Plasma was rapidly harvested by centrifugation at 5000 g for 5 min and stored at −80 °C until assayed. The extraction procedures and HPLC method were modified from the previous method. All plasma samples were analyzed on Thermo fisher U3000 high-performance liquid chromatography (HPLC) system. […] The acetonitrile supernatants were combined, evaporated under nitrogen at 40 °C, and dissolved in 0.2 mL of mobile phase, from which 20 μL was injected into HPLC system. The mobile phase consisted of a mixture of acetonitrile-water at a ratio of 20:80 (v/v). The detection conditions as the follows: wavelength at 224 nm, the column temperature at 35 °C and the flow rate at 1 mL/min. The calibration samples were prepared with eight different FFC concentrations using blank plasma. […] The average of inter- and intra-day precision (RSD) was <11%. […] Pharmacokinetic calculations were performed on each individual set of data using 3p97 practical pharmacokinetic software (Version 97, Chinese Pharmacologic Association, Beijing, China). Least-squares fits were determined for both biexponential (two-compartment model) and single exponential (one-compartment model) equations. The number of exponential terms required to describe the plasma concentration-time data for each boiler chickens was determined by application of Akaike’s Information Criterion (AIC Method). The area under the concentration-time curve (AUC) was calculated according to the linear trapezoidal method.

[3] = MDCK-chAbcg2, with gefitinib (100 μM)
[4] = MDCK-chAbcg2, without gefitinib
[5] = Arbor Acres (AA) broiler, plasma, iv, 10 mg/kg, intravenous 10 mg/kg, 4-week old broilers
[6] = Arbor Acres (AA) broiler, plasma, iv, 10 mg/kg, intravenous 10 mg/kg, 8-week old broilers
[7] = Arbor Acres (AA) broiler, plasma, po, 20 mg/kg, oral 20 mg/kg, 4-week old broilers
[8] = Arbor Acres (AA) broiler, plasma, po, 20 mg/kg, oral 20 mg/kg, 8-week old broilers
[9] = Arbor Acres (AA) broiler, plasma, po, 20 mg/kg, with gefitinib 100 mg/kg (BCRP inhibitor, co-dosed orally), oral 20 mg/kg, 8-week old broilers administered gefitinib (100 mg/kg)
[10] = oral 20 mg/kg, 4-week old broilers
[11] = oral 20 mg/kg, 4 week-old broilers
[12] = oral 20 mg/kg, 8-week old broilers
[13] = oral 20 mg/kg, 8-week old broilers administered gefitinib (100 mg/kg)
[14] = oral 20 mg/kg, 8-week old broilers with oral gefitinib 100 mg/kg
[15] = oral 20 mg/kg, 8 week old broilers

SMILES: COc1ccc2c3c([nH]c2c1)[C@H](CC(C)C)N1C(=O)[C@H](CCC(=O)OC(C)(C)C)NC(=O)[C@@H]1C3 [Ko143]
Toxicity in chicken (chicken): observed toxicity in chicken

Papp A→B at 4 h, 50 μM ([1]; with gefitinib (100 μM)): 0.37 ± 0.03 ×10⁻⁶ cm/s | Papp B→A at 4 h, 50 μM ([1]; with gefitinib (100 μM)): 0.39 ± 0.01 ×10⁻⁶ cm/s | Papp A→B at 4 h, 50 μM ([1]; without gefitinib): 0.4 ± 0.04 ×10⁻⁶ cm/s | Papp B→A at 4 h, 50 μM ([1]; without gefitinib): 0.4 ± 0.01 ×10⁻⁶ cm/s | Papp A→B at 4 h, 50 μM (chicken BCRP (Abcg2); [3]): 0.37 ± 0.02 ×10⁻⁶ cm/s | Papp B→A at 4 h, 50 μM (chicken BCRP (Abcg2); [3]): 0.43 ± 0.01 ×10⁻⁶ cm/s | Papp A→B at 4 h, 50 μM (chicken BCRP (Abcg2); [4]): 0.28 ± 0.01 ×10⁻⁶ cm/s | Papp B→A at 4 h, 50 μM (chicken BCRP (Abcg2); [4]): 0.68 ± 0.04 ×10⁻⁶ cm/s | Substrate status for chicken BCRP (FDA criteria: NER over 2.0 and efflux reversed by inhibitor) (chicken BCRP): substrate of chicken BCRP | bioavailability ([2]; Arbor Acres (AA) broiler, chicken, plasma, po, with gefitinib 100 mg/kg (BCRP inhibitor, co-dosed orally), oral 20 mg/kg, 8-week old broilers administered gefitinib (100 mg/kg)): 78.4% | AUC(0-t) [2, 5]: 5410 ± 310 ng·h/mL | half-life [2, 5]: 60 ± 51 min | Vd ([2]; Arbor Acres (AA) broiler, plasma, iv, 10 mg/kg, intravenous 10 mg/kg, 4-week old broilers, read-out: Vd): 1.51 ± 0.62 L/kg | AUC(0-t) [2, 6]: 5110 ± 1890 ng·h/mL | half-life [2, 6]: 47.4 ± 10.8 min | Vd ([2]; Arbor Acres (AA) broiler, plasma, iv, 10 mg/kg, intravenous 10 mg/kg, 8-week old broilers, read-out: Vd): 1.18 ± 0.29 L/kg | bioavailability ([2]; Arbor Acres (AA) broiler, plasma, po, 20 mg/kg, oral 20 mg/kg vs i.v. 10 mg/kg, 4-week old broilers): 79.3% | bioavailability ([2]; Arbor Acres (AA) broiler, plasma, po, 20 mg/kg, oral 20 mg/kg vs i.v. 10 mg/kg, 8-week old broilers): 48% | Cmax [2, 7]: 3870 ± 960 ng/mL | Tmax [2, 7]: 37.8 ± 12.6 min | AUC(0-t) [2, 7]: 8580 ± 1880 ng·h/mL | half-life [2, 7]: 196 ± 72 min | Cmax [2, 8]: 2930 ± 1070 ng/mL | Tmax [2, 8]: 37.2 ± 11.4 min | AUC(0-t) [2, 8]: 4910 ± 1560 ng·h/mL | half-life [2, 8]: 56.4 ± 10.2 min | Cmax [2, 9]: 1730 ± 480 ng/mL | Tmax [2, 9]: 120 ± 84.6 min | AUC(0-t) [2, 9]: 8010 ± 1650 ng·h/mL | bioavailability [2, 9]: 78.4% | half-life [2, 9]: 210 ± 201 min | ClB ([2]; intravenous 10 mg/kg, 4-week old broilers): 27.5 ± 9 mL/min/kg | ClB ([2]; intravenous 10 mg/kg, 8-week old broilers): 35.7 ± 11.2 mL/min/kg | Decrease of bioavailability in 8-week old broilers compared with 4-week old birds ([2]; oral 20 mg/kg): 31.3% | ClB [2, 10]: 40.5 ± 8.83 mL/min/kg | Vd [2, 10]: 3.42 ± 1.18 L/kg | AUC0~12h [2, 11]: 8.58 (µg/mL)·h | Cl [2, 11]: 2.43 mg/kg/h/(μg/mL) | Vd [2, 11]: 3.42 (mg/kg)/(µg/mL) | ClB [2, 12]: 73.8 ± 24.3 mL/min/kg | Vd [2, 12]: 5.64 ± 0.60 L/kg | ClB [2, 13]: 42.8 ± 8.67 mL/min/kg | Vd [2, 13]: 7.39 ± 2.98 L/kg | AUC0~12h [2, 14]: 8.01 (µg/mL)·h | Cl [2, 14]: 2.57 mg/kg/h/(μg/mL) | AUC0~12h [2, 15]: 4.91 (µg/mL)·h | Cl [2, 15]: 4.43 mg/kg/h/(μg/mL) | Vd [2, 15]: 5.64 (mg/kg)/(µg/mL)
SMILES: CS(=O)(=O)c1ccc([C@@H](O)[C@@H](CF)NC(=O)C(Cl)Cl)cc1 [florfenicol, Florfenicol]
